Experimental data reported in patent US9452997B2, “Piperidine and piperazine derivatives as autotaxin inhibitors” (Merck Patent GmbH, priority 2009, dated 2016).

Biological target: T1, Recombinant autotaxin (Homo sapiens, UniProt Q13822)
T1 construct: made in house; host or cells: Hi5 insect cells (baculovirus)
Experiment: Autotaxin assay (Amplex Red, LPC substrate)
Type: biochemical
Conditions: recombinant autotaxin, LPC substrate, Amplex Red detection; values given as upper bounds
Method: Autotaxin activity is measured indirectly by means of Amplex Red Reagent. In this course, Amplex Red is measured as fluorogenic indicator for generated H2O2. Autotaxin converts substrate lysophosphatidylcholine (LPC) to phosphocholine and lysophosphatidylic acid (LPA). After the conversion phosphocholine is reacted with alkaline phosphatase to obtain inorganic phosphate and choline. During the next step choline is oxidized with choline oxidase to yield betaine, whereby H2O2 is generated. H2O2 reacts with Amplex Red Reagent in the presence of peroxidase (Horseradish peroxidase) in an 1:1 stochiometry and yields highly fluorescent resorufin. The generated fluorescence is measured in a reaction-dependent kinetic mode in order to enable subtraction of fluorescence signals of possible other fluorescent compounds that are not part of the reaction from total measured fluorescence.
1.5 μl of a standard solution or of the compounds of the invention are dissolved in 20 mM Hepes pH 7.2 with maximally 7.7% DMSO in individual concentrations. The resulting solution is pre-incubated together with 10 μl (16 ng) of highly purified recombinant autotaxin in a black 384-hole microtiter plate for 30 min at 22° C.
Thereafter, the reaction is started through the addition of 5 μL-a-lysophosphatidyl-choline (LPC), whereby the final concentration of LPC is 75 μM. The mixture is incubated for 90 min. at 37° C. After the incubation Amplex Red Reagent, peroxidase (Horseradish peroxidase) and choline oxidase are added. The fluorescence is immediately measured at a wavelength of 612 nm with an excitation wavelength of 485 nm in a “Tecan Ultra multimode” fluorescence reader. The activity of autotaxin is indirectly calculated via the amount of detected generated H2O2.
For IC50 analysis, ten serial 1:3 dilutions starting at 30 μM for each compound were run in duplicates.
IC50 values were calculated on normalized data. For normalization, control wells were added to each assay plate and the signal of uninhibited control wells was set to 100%, whereas the signal inhibited by 500 μM C14 LPA, (Avanti Polar Lipids, Cat#857120P) was set to 0%. Curves were fitted and IC50 values calculated by the following model using proprietory analysis software: Y=Bottom+(100−Bottom)/(1+10^((Log IC50−X)*HillSlope)) Where X is the logarithm of concentration. Y is the response; Y starts at Bottom and goes to Top with a sigmoid shape. Material
Microtiter plate: PS-Microplate, 384-hole, small volume, black Corning, Cat#3677
Protein: Recombinant autotaxin (baculoviral Hi5 expression)
Substrate: L-a-lysophosphatidyl choline (chicken egg); Avanti Polar Lipids #830071P
Standard: C14 LPA, Avanti Polar Lipids, Cat#857120P
Detection Reagent: Amplex Red Reagent; Invitrogen #A12222; dissolved in 1.923 ml of DMSO peroxidase Type VI-A (horseradish), Sigma #P6782; dissolved in 7.45 ml of test buffer, Choline Oxidase; Sigma #C5896; dissolved in 2.47 ml test buffer
Detection Reagent Mix: 1:100 dilution of Amplex Red Regent in test buffer
Test buffer: 200 mM Tris-HCl, Merck, Cat #1.08219, pH 7.9; 0.1% BSA, lipid free, Roche Cat#775835

How did the IC50 turn out when `O=C(NCCc1cccnc1)C1CC(=O)N(C2CCN(C(=O)OCc3cc(Cl)cc(Cl)c3)CC2)C1` (centres unmarked) [Compound 30, 4-[2-Oxo-4-(2-pyridin-3-yl-ethylcarbamoyl)-pyrrolidin-1-yl]-piperidine-1-carboxylic acid 3,5-dichloro-benzyl ester] was run?
The IC50 was less than 30000 nM.

How did the IC50 turn out when `O=C(Nc1cc(Cl)cc(Cl)c1)N1CCN(C2CCN(C(=O)c3ccc4[nH]nnc4c3)CC2)CC1` [Compound 31, 4-[1-(1H-Benzotriazole-5-carbonyl)-piperidin-4-yl]-piperazine-1-carboxylic acid (3,5-dichloro-phenyl)-amide] was run?
The IC50 was less than 30000 nM.

`O=C(CCc1ccc(C(F)(F)F)cc1)N1CCN(C2CCN(C(=O)c3ccc4[nH]nnc4c3)CC2)CC1` [Compound 32, 1-{4-[1-(1H-Benzotriazole-5-carbonyl)-piperidin-4-yl]-piperazin-1-yl}-3-(4-trifluoromethyl-phenyl)-propan-1-one] was tested. Which IC50 did it give?
The IC50 was less than 1000 nM.

With `O=C(CCc1ccc(C(F)(F)F)cc1)N1CCN(C2CCN(C(=O)c3ccc4[nH]c(=O)oc4c3)CC2)CC1` [Compound 33, 6-(4-{4-[3-(4-Trifluoromethyl-phenyl)-propionyl]-piperazin-1-yl}-piperidine-1-carbonyl)-3H-benzooxazol-2-one] as the compound, how does the IC50 read?
Its IC50 is less than 1000 nM.

How did the IC50 turn out when `O=C(OCc1ccc(C(F)(F)F)cc1)N1CCN(C2CCN(C(=O)c3ccc4[nH]nnc4c3)CC2)CC1` [Compound 34, 4-[1-(1H-Benzotriazole-5-carbonyl)-piperidin-4-yl]-piperazine-1-carboxylic acid 4-trifluoromethyl-benzyl ester] was run?
Its IC50 is less than 1000 nM.

`O=C(OCc1cc(C(F)(F)F)cc(C(F)(F)F)c1)N1CCN(C2CCN(C(=O)c3ccc4[nH]nnc4c3)CC2)CC1` [Compound 35, 4-[1-(1H-Benzotriazole-5-carbonyl)-piperidin-4-yl]-piperazine-1-carboxylic acid 3,5-bis-trifluoromethyl-benzyl ester] was tested. Which IC50 did it give?
The IC50 was less than 1000 nM.

With `O=C(OCc1ccc(Cl)cc1F)N1CCN(C2CCN(C(=O)c3ccc4[nH]nnc4c3)CC2)CC1` [Compound 36, 4-[1-(1H-Benzotriazole-5-carbonyl)-piperidin-4-yl]-piperazine-1-carboxylic acid 4-chloro-2-fluoro-benzyl ester] as the compound, how does the IC50 read?
The IC50 was less than 1000 nM.

For `O=C(OCc1ccc(SC(F)(F)F)cc1)N1CCN(C2CCN(C(=O)c3ccc4[nH]nnc4c3)CC2)CC1` [Compound 37, 4-[1-(1H-Benzotriazole-5-carbonyl)-piperidin-4-yl]-piperazine-1-carboxylic acid 4-trifluoromethylsulfanyl-benzyl ester], which IC50 is on record?
Its IC50 is less than 1000 nM.

For `COc1ccc(Cl)cc1COC(=O)N1CCN(C2CCN(C(=O)c3ccc4[nH]nnc4c3)CC2)CC1` [Compound 38, 4-[1-(1H-Benzotriazole-5-carbonyl)-piperidin-4-yl]-piperazine-1-carboxylic acid 5-chloro-2-methoxy-benzyl ester], which IC50 is on record?
Its IC50 is less than 1000 nM.

`O=C(OCc1ccccc1Cl)N1CCN(C2CCN(C(=O)c3ccc4[nH]nnc4c3)CC2)CC1` [Compound 39, 4-[1-(1H-Benzotriazole-5-carbonyl)-piperidin-4-yl]-piperazine-1-carboxylic acid 2-chloro-benzyl ester] was tested. Which IC50 did it give?
Its IC50 is less than 10000 nM.

For `Cc1ccc(COC(=O)N2CCN(C3CCN(C(=O)c4ccc5[nH]nnc5c4)CC3)CC2)cc1` [Compound 40, 4-[1-(1H-Benzotriazole-5-carbonyl)-piperidin-4-yl]-piperazine-1-carboxylic acid 4-methyl-benzyl ester], which IC50 is on record?
Its IC50 is less than 10000 nM.

How did the IC50 turn out when `O=C(OCc1cccc(Cl)c1)N1CCN(C2CCN(C(=O)c3ccc4[nH]nnc4c3)CC2)CC1` [Compound 41, 4-[1-(1H-Benzotriazole-5-carbonyl)-piperidin-4-yl]-piperazine-1-carboxylic acid 3-chloro-benzyl ester] was run?
The IC50 was less than 1000 nM.

For `O=C(OCc1ccc(Cl)cc1)N1CCN(C2CCN(C(=O)c3ccc4[nH]nnc4c3)CC2)CC1` [Compound 42, 4-[1-(1H-Benzotriazole-5-carbonyl)-piperidin-4-yl]-piperazine-1-carboxylic acid 4-chloro-benzyl ester], which IC50 is on record?
The IC50 was less than 1000 nM.

With `CC(C)c1ccc(COC(=O)N2CCN(C3CCN(C(=O)c4ccc5[nH]nnc5c4)CC3)CC2)cc1` [Compound 43, 4-[1-(1H-Benzotriazole-5-carbonyl)-piperidin-4-yl]-piperazine-1-carboxylic acid 4-isopropyl-benzyl ester] as the compound, how does the IC50 read?
Its IC50 is less than 1000 nM.

Which IC50 does the source give for `O=C(OCc1ccc(Cl)c(Cl)c1)N1CCN(C2CCN(C(=O)c3ccc4[nH]nnc4c3)CC2)CC1` [Compound 45, 4-[1-(1H-Benzotriazole-5-carbonyl)-piperidin-4-yl]-piperazine-1-carboxylic acid 3,4-dichloro-benzyl ester] here?
Its IC50 is less than 1000 nM.

Which IC50 does the source give for `O=C(OCc1ccc(Cl)cc1Cl)N1CCN(C2CCN(C(=O)c3ccc4[nH]nnc4c3)CC2)CC1` [Compound 46, 4-[1-(1H-Benzotriazole-5-carbonyl)-piperidin-4-yl]-piperazine-1-carboxylic acid 2,4-dichloro-benzyl ester] here?
Its IC50 is less than 1000 nM.

Which IC50 does the source give for `O=C(OCc1ccc(OC(F)(F)F)cc1)N1CCN(C2CCN(C(=O)c3ccc4[nH]nnc4c3)CC2)CC1` [Compound 47, 4-[1-(1H-Benzotriazole-5-carbonyl)-piperidin-4-yl]-piperazine-1-carboxylic acid 4-trifluoromethoxy-benzyl ester] here?
Its IC50 is less than 1000 nM.

How did the IC50 turn out when `Cc1nc(-c2ccc(C(F)(F)F)cc2)sc1C(=O)N1CCN(C2CCN(C(=O)c3ccc4[nH]nnc4c3)CC2)CC1` [Compound 48, (1H-Benzotriazol-5-yl)-(4-{4-[4-methyl-2-(4-trifluoromethyl-phenyl)-thiazole-5-carbonyl]-piperazin-1-yl}-piperidin-1-yl)-methanone] was run?
Its IC50 is less than 10000 nM.

With `O=C(CCc1ccc(C(F)(F)F)cc1)N1CCC(N2CCN(C(=O)c3ccc4[nH]c(=O)oc4c3)CC2)CC1` [Compound 49, 6-(4-{1-[3-(4-Trifluoromethyl-phenyl)-propionyl]-piperidin-4-yl}-piperazine-1-carbonyl)-3H-benzooxazol-2-one] as the compound, how does the IC50 read?
The IC50 was less than 1000 nM.

`O=C(CCc1ccc(C(F)(F)F)cc1)N1CCC(N2CCN(C(=O)c3ccc4[nH]nnc4c3)CC2)CC1` [Compound 50, 1-{4-[4-(1H-Benzotriazole-5-carbonyl)-piperazin-1-yl]-piperidin-1-yl}-3-(4-trifluoromethyl-phenyl)-propan-1-one] was tested. Which IC50 did it give?
The IC50 was less than 10000 nM.

With `O=C(OCc1cc(Cl)cc(Cl)c1)N1CCC(NC2CCN(C(=O)c3ccc4[nH]nnc4c3)CC2)C1` (centres unmarked) [Compound 51, 3-[1-(1H-Benzotriazole-5-carbonyl)-piperidin-4-ylamino]-pyrrolidine-1-carboxylic acid 3,5-dichloro-benzyl ester] as the compound, how does the IC50 read?
The IC50 was less than 1000 nM.

`O=C(c1ccc2[nH]nnc2c1)N1CCC(N2CCN(C(=O)c3nc4cc(C(F)(F)F)ccc4[nH]3)CC2)CC1` [Compound 52, (1H-Benzotriazol-5-yl)-{4-[4-(5-trifluoromethyl-1H-benzoimidazole-2-carbonyl)-piperazin-1-yl]-piperidin-1-yl}-methanone] was tested. Which IC50 did it give?
The IC50 was less than 10000 nM.

With `O=C(NCCc1c[nH]cn1)C1CC(=O)N(C2CCN(C(=O)OCc3cc(Cl)cc(Cl)c3)CC2)C1` (centres unmarked) [Compound 53, 4-{4-[2-(1H-Imidazol-4-yl)-ethylcarbamoyl]-2-oxo-pyrrolidin-1-yl}-piperidine-1-carboxylic acid 3,5-dichloro-benzyl ester] as the compound, how does the IC50 read?
The IC50 was less than 10000 nM.
